Results as given in the supplement of paper PMC6723410.

These compounds were tested on GUMC-403 (assay: viability at highest tested concentration (max response) relative to DMSO (% of DMSO control); higher = less cytotoxic). Settings: library / dose series: MIPE library, 11-point 1:3 dilution; top concentration 23 µM; 48 h.
In short: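 Patient-derived GUMC-403 papilloma cells grown by conditional reprogramming were plated at 700/well in 5 μL F + Y medium in 1536-well plates and incubated overnight at 37 °C. They then received 23 nL of MIPE 4.0 compounds by pin tool (11-point 1:3 series) for 48 h. CellTiter-Glo luminescence was read on a ViewLux and normalised with DMSO wells as 100% and empty wells as 0%. The value is viability at the highest tested concentration relative to DMSO control.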
`Cc1ccc([S+](=O)([O-])Nc2nc3ccccc3nc2Nc2ccc3nsnc3c2)cc1` showed a viability of 66.3.

Same assay, conditions: library / dose series: MIPE library, 11-point 1:3 dilution; top concentration 27.2 µM; 48 h
`CN1[C@@H]2CC(OC(=O)[C@@H](CO)c3ccccc3)C[C@H]1[C@H]1O[C@H]12` (some centres undefined) showed a viability of 131.

Same assay, conditions: library / dose series: MIPE library, 11-point 1:3 dilution; top concentration 46.1 µM; 48 h
With `Cc1cccc(N(C)C(=S)Oc2ccc3ccccc3c2)c1` the viability was 139.
`NCCCCNCCCN` was tested, and the viability was 121.
In the case of `CCOc1cc(C(=O)Nc2ccc(Cl)c(-c3nc4ccccc4[nH]3)c2)cc(OCC)c1OCC`, the viability was 90.5.
`N[S+](=O)([O-])c1cc2c(cc1Cl)NC(C(Cl)Cl)N[S+]2(=O)[O-]` (centres undefined) gave a viability of 98.6.
With `N#C/C(C(=O)c1ccc(Cl)cc1Cl)=C1/NC(=O)c2ccc(Cl)cc2N1` the viability was 100.
Work on `O=C(Nc1nc2ccccc2n1CCN1CCOCC1)c1cccc([N+](=O)[O-])c1` yielded a viability of 124.
`Nc1nc(Nc2ccc([S+](N)(=O)[O-])cc2)nn1C(=O)c1c(F)cccc1F` gave a viability of 111.
With `COCC(=O)NC/C=C/c1ccc2ncnc(Nc3ccc(Oc4ccc(C)nc4)c(C)c3)c2c1` the viability was 98.1.
With `COC(=O)Nc1nc2cc(C(=O)c3cccs3)ccc2[nH]1` the viability was 105.
With `Cc1cc(-c2nnc3n2CCCCC3)c(C)n1-c1ccccc1` the viability was 103.
Work on `N#Cc1ccc(COC[C@H]2O[C@@H](n3c(NCc4ccc(Cl)c(Cl)c4)nc4c(N)ncnc43)[C@H](O)[C@@H]2O)cc1` yielded a viability of 89.
For `CC(C)c1ccc2oc3nc(N)c(C(=O)O)cc3c(=O)c2c1`, the viability was 116.
`O=C1Nc2ccccc2/C1=C1\Nc2ccccc2C1=O` was tested, and the viability was 104.
With `Clc1ccc2ncc(-c3cccc(NC4CNC4)n3)n2c1` the viability was 124.
Work on `CC(C)C(C)/C=C/C(C)C1CCC2C3=CC=C4CC(O)CCC4(C)C3CCC21C` (centres undefined) yielded a viability of 130.
`CC(=O)O[C@@]1(CC[C@H]2[C@@H]3\C=C(Cl)/C4=C/C(=O)[C@@H]5C[C@@H]5[C@]4(C)[C@H]3CC[C@]12C)C(C)=O` showed a viability of 76.4.
Compound `CN(C)c1ccc(Nc2nc(N)n(C(=O)c3c(F)cccc3F)n2)cc1` has a viability of 103.
`ClC1=CC\2=C(OC3=C(C=CC=C3)\N=C2N4CCNCC4)C=C1` gave a viability of 110.
Work on `COc1ccc(-c2nc3cc(C4=NNC(=O)CC4C)ccc3[nH]2)cc1` (centres undefined) yielded a viability of 119.
`O=C(Nc1ccccc1Br)N[C@@H]1CCN(c2ccc(C(F)(F)F)cn2)C1` gave a viability of 114.
`OC1=CC(=C(C=C1)\C2=C(O)\C(=O)C3=C(O2)C=C(O)C=C3O)O` was tested, and the viability was 93.9.
For `COc1cc2c(Nc3ccc(Br)cc3F)ncnc2cc1OCC1CCN(C)CC1`, the viability was 52.2.
`O=C(O)CSCC(=O)NC1CCSC1=O` (centres undefined) showed a viability of 139.
Work on `O=C(Oc1ccc([N+](=O)[O-])cc1)N1CCC(C(O)(c2ccc3c(c2)OCO3)c2ccc3c(c2)OCO3)CC1` yielded a viability of 105.
In the case of `COc1ccc(C[C@@H](C)[C@@H](C)Cc2ccc(OC)c(OC)c2)cc1OC`, the viability was 122.
For `CCC[C@H](N[C@@H](C)C(=O)N1[C@H](C(=O)O)C[C@@H]2CCCC[C@@H]21)C(=O)OCC`, the viability was 120.
With `COc1ccc(/C=C\c2cc(OC)c(OC)c(OC)c2)cc1NC(=O)[C@H](N)CO` the viability was 85.1.
`COc1ccc(CCC(=O)c2c(O)cc(O[C@@H]3O[C@H](CO)[C@@H](O)[C@H](O)[C@H]3O[C@@H]3O[C@@H](C)[C@H](O)[C@@H](O)[C@H]3O)cc2O)cc1O` was tested, and the viability was 57.9.
`CC(=O)OCC(=O)[C@@]1(O)CC[C@H]2[C@@H]3CCC/4=C/C(=O)/C=C\[C@]4(C)[C@H]3[C@@H](O)C[C@]12C` gave a viability of 123.
With `CN(C)CCc1c[nH]c2ccc(C[C@H]3COC(=O)N3)cc12` the viability was 106.
`CNC[C@H](O)c1cccc(O)c1` showed a viability of 139.
`C\C1=C\C(=O)OC2=C1C=CC(=C2)O` gave a viability of 110.
`CCC[C@H](Nc1nc(-c2ccc(NC(=O)NCC)c(OC)c2)ncc1C)c1cccnc1` gave a viability of 94.
`Nc1c2c(nc3ccccc13)CCCC2` was tested, and the viability was 107.
Work on `CN1C2=CC(=O)/C(=N/NC(N)=O)C=C2CC1S(=O)(=O)[O-].[Na+]` (centres undefined) yielded a viability of 102.
For `O=C(CCCCCCC(=O)Nc1ccc([C@H]2O[C@@H](CSc3nc(-c4ccccc4)c(-c4ccccc4)o3)C[C@@H](c3ccc(CO)cc3)O2)cc1)NO`, the viability was 115.
`COC/1=C/[C@@H]2[C@@H]3CC4=C(C(=C(OC)C=C4)O)[C@]2(CCN3C)CC1=O` gave a viability of 65.
For `c1cc(OCCN2CCCCC2)cc(-c2n[nH]c3ccc(-c4nc[nH]n4)cc23)c1`, the viability was 111.
Compound `CCC1(C)CC(=O)NC1=O` (centres undefined) has a viability of 94.5.
For `[O-]C(=O)C1=C(C(=C(Cl)C(=C1Cl)Cl)Cl)C/2=C/3\C=C(I)/C(=O)/C(=C3OC4=C2C=C(I)C(=C4I)[O-])I`, the viability was 82.
Compound `Cc1cc(OCCCc2c(C(=O)O)n(Cc3cccnc3)c3c(-c4c(COc5ccc(N6CCN([S+](C)(=O)[O-])CC6)cc5)nn(C)c4C)cccc23)cc(C)c1Cl` has a viability of 105.
With `CCN(CC)Cc1ccc2cc(COC(=O)Nc3ccc(C(=O)NO)cc3)ccc2c1` the viability was 78.6.
For `NC(=O)c1c(OCc2c(F)cc(Br)cc2F)nsc1NC(=O)NCCCCN1CCCC1`, the viability was 101.
For `CC(NC1=CC=CC=C1)C\2=C\C(=C/N3C(=O)\C=C(/N=C23)N4CCOCC4)C` (centres undefined), the viability was 79.7.
In the case of `CN(C)CCOc1ccc(/C(=C(/CCCl)c2ccccc2)c2ccccc2)cc1`, the viability was 104.
In the case of `C=CCc1ccc(O)c(-c2ccc(O)c(CC=C)c2)c1`, the viability was 80.6.
Compound `C[C@H](NC(=O)/C(C#N)=C/c1cccc(Br)n1)c1ccccc1` has a viability of 31.7.
For `O=C(N[C@@H](c1ccccc1)[C@@H]1CCCCN1)c1cccc(C(F)(F)F)c1Cl`, the viability was 99.
For `COc1cc2ncn(-c3cc(OCc4ccccc4[S+](C)(=O)[O-])c(C#N)s3)c2cc1OC`, the viability was 81.5.
Compound `CCCc1nc2c(C)cc(-c3nc4ccccc4n3C)cc2n1Cc1ccc(-c2ccccc2C(=O)O)cc1` has a viability of 118.
For `NCC/1=C/NC(=S)N1[C@H]2CCC3=C(F)C=C(F)C=C3C2`, the viability was 95.9.
In the case of `O=C(NCCCCN1CCOCC1)c1cc2ccccc2o1`, the viability was 106.
`CCN1\C=C(C(O)=O)/C(=O)C2=C1C=C(N3CCN(C)CC3)C(=C2)F` was tested, and the viability was 115.
Compound `CCc1cc(Nc2nccc(-c3c(-c4ccc(OC)c(C(=O)Nc5c(F)cccc5F)c4)nc4ccccn34)n2)c(OC)cc1N1CCC(N2CCN([S+](C)(=O)[O-])CC2)CC1` has a viability of 122.
`COc1cccc2c(NCc3ccccc3)nc(-n3c(N)nc4ccccc43)nc12` gave a viability of 131.
Compound `FC(F)(F)c1ccc(Nc2nc3cc(Oc4ccnc(-c5ncc(C(F)(F)F)[nH]5)c4)ccc3[nH]2)cc1` has a viability of 97.7.
For `CCC1=C2C=C(OC(=O)N3CCC(CC3)N4CCCCC4)C=CC2=NC\5=C1CN6C(=O)\C7=C(/C=C56)[C@@](O)(CC)C(=O)OC7`, the viability was 56.1.
Work on `O=C(Nc1cccc(Br)c1)c1cccc([S+](=O)([O-])N2CCCCCC2)c1` yielded a viability of 111.
`CC(=O)[C@H]1CC[C@H]2[C@@H]3CCC4=CC(=O)CC[C@]4(C)[C@H]3CC[C@]12C` showed a viability of 118.
`COC1=NC(=NC(=C1N\C2=N\CCN2)Cl)C` gave a viability of 95.8.
Work on `C=C(C)[C@@H]1CC[C@]2(C(=O)O)CC[C@]3(C)[C@H](CC[C@@H]4[C@@]5(C)CC[C@H](O)C(C)(C)[C@@H]5CC[C@]43C)[C@@H]12` yielded a viability of 94.5.
`C#CCC(Cc1cnc2nc(N)nc(N)c2n1)c1ccc(C(=O)N[C@@H](CCC(=O)O)C(=O)O)cc1` (some centres undefined) was tested, and the viability was 95.2.
In the case of `Clc1ccc(C(c2ccccc2Cl)C(Cl)Cl)cc1` (centres undefined), the viability was 100.
`Clc1ccc(C(Cn2ccnc2)OCc2ccsc2Cl)c(Cl)c1` (centres undefined) was tested, and the viability was 107.
`NC(=O)c1cccnc1` was tested, and the viability was 136.
`C=CCc1cc(OC)c(O)c(C(=O)NCCO)c1` gave a viability of 118.
With `NC/1=N/C(=O)N/C=C1F` the viability was 104.
In the case of `O=C1\C=C/C=C2/[C@H]3CNC[C@H](C3)CN12`, the viability was 136.
With `CC(S)C(=O)NCC(=O)O` (centres undefined) the viability was 135.
With `C[C@H](NC(=O)C(=O)Nc1ccccc1C(C)(C)C)C(=O)N[C@@H](CC(=O)O)C(=O)COc1c(F)c(F)cc(F)c1F` the viability was 68.7.
For `CN1CCC[C@@H]1CCO[C@](C)(c1ccccc1)c1ccc(Cl)cc1`, the viability was 103.
With `Nc1nc(Cl)nc2c1ncn2[C@@H]1O[C@H](CO)[C@@H](O)[C@@H]1F` the viability was 104.
With `Cn1c(=O)n(-c2ccc(C(C)(C)C#N)cc2)c2c3cc(-c4cnc5ccccc5c4)ccc3ncc21` the viability was 73.3.
Work on `CC1=CC=C2N=C(NC(=O)CS\C3=N\C4=C(\SCC4)C(=O)N3C5=CC=CC=C5)SC2=C1` yielded a viability of 109.
For `CCCCOc1ccc(CC(=O)NO)cc1`, the viability was 109.
In the case of `CC[C@H](C)C(=O)O[C@H]1C[C@H](O)\C=C2\C=C/[C@H](C)[C@H](CC[C@@H](O)C[C@@H](O)CC(O)=O)[C@@H]12`, the viability was 103.
In the case of `CN(C)CC(=O)N1CCC(CC1)C2=CC=C(NC(=O)C3=NC(=C[NH]3)C#N)C(=C2)\C4=C\CCCC4`, the viability was 129.
Work on `CCn1c(-c2nonc2N)nc2cnc(Oc3cccc(NC(=O)c4ccc(OCCN5CCOCC5)cc4)c3)cc21` yielded a viability of 65.4.
With `CC(C)C(=O)Oc1ccc(CO)cc1[C@H](CCN(C(C)C)C(C)C)c1ccccc1` the viability was 84.7.
`CC1SC/2=C(C(O)=O)/C(=O)C3=CC(=C(C=C3N12)N4CCN(CC4)C\C5=C(C)\OC(=O)O5)F` (centres undefined) gave a viability of 112.
`C=CC(=O)Nc1cccc(Sc2nc(Nc3ccc(N4CCN(C)CC4)cc3)ncc2Cl)c1` gave a viability of 70.3.
`C[C@H](NC(=O)[C@@H](O)c1cc(F)cc(F)c1)C(=O)N[C@@H]1C(=O)N(C)c2ccccc2-c2ccccc21` was tested, and the viability was 99.
